The numbers were not newly measured in patent US7285553B2, “Serotonergic 5HT7 receptor compounds for treating ocular and CNS disorders” (Alcon Manufacturing, Ltd., priority 1998, dated 2007), which cites them from elsewhere.

Structures are written as SMILES. Read-outs that look alike come from different tables or passages of the source.

The subject of one data set is rabbit eye. Conditions: for IOP: rabbits; for intraocular pressure in the anterior chamber of the eye: topically applied to the rabbit eye.
Data set [1] concerns IOP.
The subject of data set [2] is IOP. This is another data set of the same source.
Data set [3] relates to IOP. Conditions: glaucomatous monkeys.

With `c1ccc2c(c1)OC[C@H](CNCCCOc1ccc3c(c1)OCO3)O2` [MKC-242], the IOP entry in the data set with rabbit eye is “lower IOP”.

For the compound `NCCc1c[nH]c2ccc(O)cc12` [Example 5HT, 5-hydroxy tryptamine], the “intraocular pressure in the anterior chamber of the eye” value in the data set on rabbit eye was “raise intraocular pressure”. Besides, the IOP result in the data set with IOP [1] (intracamerally) is “raised IOP”; in the data set on IOP [1] (topically applied) it was “lowers IOP”. Further, the blood-aqueous barrier entry with IOP [1] (intracamerally) was “caused breakdown of the blood-aqueous barrier”.

With `COc1cccc(CCc2ccccc2OCC(CN(C)C)OC(=O)CCC(=O)O)c1` (centres unmarked) [Saprogrelate], the IOP result with IOP [2] (man, dosed topically or orally) is given as “lowers IOP”; with rabbit eye (dosed topically or orally) it was “lowers IOP”.

Turning to `COc1ccccc1N1CCN(CCCNc2c(C)c(=O)n(C)c(=O)n2C)CC1` [5-methylurapidil], the IOP entry in the data set on IOP [3] was “lowered IOP”.

For the compound `NCCc1c[nH]c2ccc(C(N)=O)cc12` [Example 5-CT, 5-carboxamidotryptamine], the “intraocular pressure in the anterior chamber of the eye” value in the data set with rabbit eye is reported as “raise intraocular pressure”.

Consider `CCCN(CCC)C1CCc2cccc(O)c2C1` (centres unmarked) [8-hydroxy DPAT], for which, in the data set on rabbit eye, the IOP entry is reported as “lower IOP”.

For `CNCCC(Oc1ccc(C(F)(F)F)cc1)c1ccccc1` (centres unmarked) [fluoxetine], the IOP entry in the data set on IOP [2] (human subjects, oral administration) is on record as “raises IOP”.

`O=C(c1ccc(F)cc1)C1CCN(CCn2c(=O)[nH]c3ccccc3c2=O)CC1` [Ketanserin]: the IOP entry in the data set on IOP [2] (man) and in the data set with rabbit eye was “lowers IOP” throughout.

On to `CC[C@@H](CO)NC(=O)[C@@H]1C=C2c3cccc4c3c(cn4C)C[C@H]2N(C)C1` [Methysergide], for which the IOP result in the data set with rabbit eye is given as “lowered IOP”.
